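Growth conditions: 96-well plates. Treatment: test compound, 48 hours, 5 concentrations. Analysis: linear interpolation between bracketing concentrations; unreached endpoints set to highest concentration. GI50 is the concentration that inhibits growth by half. TGI is the concentration that stops growth completely.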
Assays:
Assay in all cases: DTP human tumour cell line panel, 48 h
NCI-H522 lung = test system: NCI-H522 lung
KM12 colon = test system: KM12 colon
DU-145 prostate = test system: DU-145 prostate
786-0 renal = test system: 786-0 renal
SK-MEL-2 melanoma = test system: SK-MEL-2 melanoma
A549 NSCLC = test system: A549 NSCLC
HCT-15 colon = test system: HCT-15 colon
OVCAR-3 ovarian = test system: OVCAR-3 ovarian
SK-OV-3 ovarian = test system: SK-OV-3 ovarian
CAKI-1 renal = test system: CAKI-1 renal
UACC-257 melanoma = test system: UACC-257 melanoma
NCI-H23 lung = test system: NCI-H23 lung
SR leukemia = test system: SR leukemia
SF-268 CNS = test system: SF-268 CNS
K-562 leukemia = test system: K-562 leukemia
NCI-H460 lung = test system: NCI-H460 lung
UACC-62 melanoma = test system: UACC-62 melanoma
HOP-62 NSCLC = test system: HOP-62 NSCLC
SN12C renal = test system: SN12C renal
IGROV1 ovarian = test system: IGROV1 ovarian
SF-539 CNS = test system: SF-539 CNS
SNB-19 CNS = test system: SNB-19 CNS
BT-549 breast = test system: BT-549 breast
SF-295 CNS = test system: SF-295 CNS
HCT-116 colon = test system: HCT-116 colon
MCF7 breast = test system: MCF7 breast
HS 578T breast = test system: HS 578T breast
MDA-MB-435 = test system: MDA-MB-435
MDA-MB-231 breast = test system: MDA-MB-231 breast
RPMI-8226 leukemia = test system: RPMI-8226 leukemia
SK-MEL-5 melanoma = test system: SK-MEL-5 melanoma
ACHN renal = test system: ACHN renal
M14 melanoma = test system: M14 melanoma
NCI/ADR-RES ovarian = test system: NCI/ADR-RES ovarian
OVCAR-5 ovarian = test system: OVCAR-5 ovarian
UO-31 renal = test system: UO-31 renal
U251 CNS = test system: U251 CNS
SW-620 colon = test system: SW-620 colon
PC-3 prostate = test system: PC-3 prostate
HOP-92 NSCLC = test system: HOP-92 NSCLC
LOX IMVI melanoma = test system: LOX IMVI melanoma
HL-60(TB) leukemia = test system: HL-60(TB) leukemia
OVCAR-8 ovarian = test system: OVCAR-8 ovarian
T-47D breast = test system: T-47D breast
COLO 205 colon = test system: COLO 205 colon
EKVX NSCLC = test system: EKVX NSCLC
TK-10 renal = test system: TK-10 renal

Which GI50 (NCI-H522 lung) does the source give for `NC(N)=N/N=C/c1c(-c2ccccn2)nc2sc(Cl)cn12` here?
Its GI50 is 7.86 µM.

What about the TGI (NCI-H522 lung) of the same molecule?
Its TGI is 15.3 µM.

What about the GI50 (KM12 colon) of the same molecule?
The GI50 was 8.05 µM.

What about the TGI (KM12 colon) of the same molecule?
Its TGI is 15.1 µM.

And the GI50 (DU-145 prostate)?
The GI50 was 7.68 µM.

And the TGI (DU-145 prostate)?
The TGI was 14.4 µM.

What about the GI50 (786-0 renal) of the same molecule?
The GI50 was 8.45 µM.

And the TGI (786-0 renal)?
The TGI was 16.4 µM.

What about the GI50 (SK-MEL-2 melanoma) of the same molecule?
The GI50 was 7.93 µM.

And the TGI (SK-MEL-2 melanoma)?
Its TGI is 15.1 µM.

What about the GI50 (A549 NSCLC) of the same molecule?
Its GI50 is 6.87 µM.

And the TGI (A549 NSCLC)?
Its TGI is 14 µM.

What about the GI50 (HCT-15 colon) of the same molecule?
Its GI50 is 8.15 µM.

What about the TGI (HCT-15 colon) of the same molecule?
Its TGI is 14.9 µM.

And the GI50 (OVCAR-3 ovarian)?
Its GI50 is 7.55 µM.

And the TGI (OVCAR-3 ovarian)?
Its TGI is 14.3 µM.

And the GI50 (SK-OV-3 ovarian)?
Its GI50 is 9.1 µM.

What about the TGI (SK-OV-3 ovarian) of the same molecule?
The TGI was 17.9 µM.

What about the GI50 (CAKI-1 renal) of the same molecule?
The GI50 was 8.59 µM.

What about the TGI (CAKI-1 renal) of the same molecule?
Its TGI is 15.6 µM.

What about the GI50 (UACC-257 melanoma) of the same molecule?
The GI50 was 7.45 µM.

What about the TGI (UACC-257 melanoma) of the same molecule?
The TGI was 14.8 µM.

And the GI50 (NCI-H23 lung)?
The GI50 was 11.5 µM.

And the TGI (NCI-H23 lung)?
The TGI was 19.1 µM.

And the GI50 (SR leukemia)?
Its GI50 is 0.845 µM.

What about the TGI (SR leukemia) of the same molecule?
The TGI was 3.05 µM.

And the GI50 (SF-268 CNS)?
Its GI50 is 8.04 µM.

What about the TGI (SF-268 CNS) of the same molecule?
Its TGI is 17.8 µM.

What about the GI50 (K-562 leukemia) of the same molecule?
Its GI50 is 3.4 µM.

And the TGI (K-562 leukemia)?
Its TGI is 13.8 µM.

What about the GI50 (NCI-H460 lung) of the same molecule?
The GI50 was 10.2 µM.

And the TGI (NCI-H460 lung)?
The TGI was 50 µM.

And the GI50 (UACC-62 melanoma)?
Its GI50 is 8.01 µM.

And the TGI (UACC-62 melanoma)?
Its TGI is 14.9 µM.

What about the GI50 (HOP-62 NSCLC) of the same molecule?
Its GI50 is 9.58 µM.

And the TGI (HOP-62 NSCLC)?
The TGI was 17.5 µM.

What about the GI50 (SN12C renal) of the same molecule?
Its GI50 is 6.84 µM.

And the TGI (SN12C renal)?
Its TGI is 13.3 µM.

What about the GI50 (IGROV1 ovarian) of the same molecule?
The GI50 was 6.21 µM.

What about the TGI (IGROV1 ovarian) of the same molecule?
The TGI was 13.7 µM.

What about the GI50 (SF-539 CNS) of the same molecule?
Its GI50 is 1.54 µM.

What about the TGI (SF-539 CNS) of the same molecule?
Its TGI is 3.49 µM.

What about the GI50 (SNB-19 CNS) of the same molecule?
Its GI50 is 7.97 µM.

What about the TGI (SNB-19 CNS) of the same molecule?
The TGI was 16 µM.

And the GI50 (BT-549 breast)?
Its GI50 is 8.25 µM.

And the TGI (BT-549 breast)?
The TGI was 15.2 µM.

What about the GI50 (SF-295 CNS) of the same molecule?
Its GI50 is 6.93 µM.

What about the TGI (SF-295 CNS) of the same molecule?
Its TGI is 13.4 µM.

What about the GI50 (HCT-116 colon) of the same molecule?
The GI50 was 8.36 µM.

What about the TGI (HCT-116 colon) of the same molecule?
Its TGI is 17.3 µM.

And the GI50 (MCF7 breast)?
The GI50 was 13.2 µM.

What about the TGI (MCF7 breast) of the same molecule?
Its TGI is 50 µM.

What about the GI50 (HS 578T breast) of the same molecule?
The GI50 was 8.91 µM.

And the TGI (HS 578T breast)?
Its TGI is 17.3 µM.

And the GI50 (MDA-MB-435)?
The GI50 was 7.56 µM.

What about the TGI (MDA-MB-435) of the same molecule?
Its TGI is 14.2 µM.

What about the GI50 (MDA-MB-231 breast) of the same molecule?
Its GI50 is 5.64 µM.

What about the TGI (MDA-MB-231 breast) of the same molecule?
Its TGI is 11.7 µM.

And the GI50 (RPMI-8226 leukemia)?
Its GI50 is 11.5 µM.

What about the TGI (RPMI-8226 leukemia) of the same molecule?
Its TGI is 29 µM.

And the GI50 (SK-MEL-5 melanoma)?
The GI50 was 8.47 µM.

What about the TGI (SK-MEL-5 melanoma) of the same molecule?
Its TGI is 15.4 µM.

What about the GI50 (ACHN renal) of the same molecule?
Its GI50 is 7.49 µM.

What about the TGI (ACHN renal) of the same molecule?
The TGI was 15.3 µM.

What about the GI50 (M14 melanoma) of the same molecule?
The GI50 was 7.6 µM.

What about the TGI (M14 melanoma) of the same molecule?
The TGI was 15.9 µM.

And the GI50 (NCI/ADR-RES ovarian)?
The GI50 was 13.6 µM.

What about the TGI (NCI/ADR-RES ovarian) of the same molecule?
Its TGI is 35.6 µM.

What about the GI50 (OVCAR-5 ovarian) of the same molecule?
The GI50 was 6.3 µM.

What about the TGI (OVCAR-5 ovarian) of the same molecule?
Its TGI is 12.6 µM.

And the GI50 (UO-31 renal)?
Its GI50 is 7.85 µM.

And the TGI (UO-31 renal)?
The TGI was 14.8 µM.

And the GI50 (U251 CNS)?
The GI50 was 8.28 µM.

What about the TGI (U251 CNS) of the same molecule?
The TGI was 15.1 µM.

And the GI50 (SW-620 colon)?
The GI50 was 5.29 µM.

What about the TGI (SW-620 colon) of the same molecule?
The TGI was 11.8 µM.

What about the GI50 (PC-3 prostate) of the same molecule?
The GI50 was 10.9 µM.

What about the TGI (PC-3 prostate) of the same molecule?
The TGI was 22 µM.

What about the GI50 (HOP-92 NSCLC) of the same molecule?
The GI50 was 10 µM.

And the TGI (HOP-92 NSCLC)?
Its TGI is 21.3 µM.

What about the GI50 (LOX IMVI melanoma) of the same molecule?
The GI50 was 7.26 µM.

And the TGI (LOX IMVI melanoma)?
The TGI was 14 µM.

What about the GI50 (HL-60(TB) leukemia) of the same molecule?
The GI50 was 11 µM.

What about the TGI (HL-60(TB) leukemia) of the same molecule?
The TGI was 25.8 µM.

What about the GI50 (OVCAR-8 ovarian) of the same molecule?
The GI50 was 6.32 µM.

What about the TGI (OVCAR-8 ovarian) of the same molecule?
Its TGI is 13.5 µM.

What about the GI50 (T-47D breast) of the same molecule?
Its GI50 is 8.58 µM.

And the TGI (T-47D breast)?
Its TGI is 23.3 µM.

And the GI50 (COLO 205 colon)?
Its GI50 is 6.26 µM.

And the TGI (COLO 205 colon)?
The TGI was 17 µM.

What about the GI50 (EKVX NSCLC) of the same molecule?
Its GI50 is 8.95 µM.

And the TGI (EKVX NSCLC)?
The TGI was 16.1 µM.

What about the GI50 (TK-10 renal) of the same molecule?
Its GI50 is 8.13 µM.

And the TGI (TK-10 renal)?
The TGI was 15.1 µM.
